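Grown in 96-well plates, cells were treated for 48 hours with each compound at five concentrations. Insufficient inhibition: endpoint recorded as highest concentration tested. GI50 marks 50% less growth. The concentration for full growth arrest is given as TGI.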
Key:
Assay in all cases: NCI anticancer screen, dose series, 48 h
[1] = test system: EKVX NSCLC
[2] = test system: DU-145 prostate
[3] = test system: MALME-3M melanoma
[4] = test system: TK-10 renal
[5] = test system: NCI-H522 lung
[6] = test system: HT29 colon
[7] = test system: UACC-257 melanoma
[8] = test system: RPMI-8226 leukemia
[9] = test system: ACHN renal
[10] = test system: SNB-75 CNS
[11] = test system: LOX IMVI melanoma
[12] = test system: HCT-15 colon
[13] = test system: MOLT-4 leukemia
[14] = test system: SK-OV-3 ovarian
[15] = test system: UO-31 renal
[16] = test system: SR leukemia
[17] = test system: HOP-92 NSCLC
[18] = test system: KM12 colon
[19] = test system: OVCAR-3 ovarian
[20] = test system: SK-MEL-2 melanoma
[21] = test system: COLO 205 colon
[22] = test system: SF-539 CNS
[23] = test system: SNB-19 CNS
[24] = test system: CAKI-1 renal
[25] = test system: HS 578T breast
[26] = test system: A498 renal
[27] = test system: MDA-MB-435
[28] = test system: HCT-116 colon
[29] = test system: BT-549 breast
[30] = test system: K-562 leukemia
[31] = test system: MCF7 breast
[32] = test system: IGROV1 ovarian
[33] = test system: HOP-62 NSCLC
[34] = test system: OVCAR-8 ovarian
[35] = test system: NCI-H23 lung
[36] = test system: M14 melanoma
[37] = test system: MDA-MB-231 breast
[38] = test system: NCI-H460 lung
[39] = test system: SN12C renal
[40] = test system: RXF 393 renal
[41] = test system: HL-60(TB) leukemia
[42] = test system: 786-0 renal
[43] = test system: NCI-H226 lung
[44] = test system: UACC-62 melanoma
[45] = test system: SK-MEL-5 melanoma
[46] = test system: SK-MEL-28 melanoma
[47] = test system: SF-295 CNS
[48] = test system: HCC-2998 colon
[49] = test system: OVCAR-5 ovarian
[50] = test system: SW-620 colon
[51] = test system: A549 NSCLC
[52] = test system: OVCAR-4 ovarian
[53] = test system: PC-3 prostate
[54] = test system: NCI/ADR-RES ovarian
[55] = test system: U251 CNS
[56] = test system: T-47D breast
[57] = test system: CCRF-CEM leukemia
[58] = test system: SF-268 CNS

Q: What does the source list for `OCc1ccc(-c2nc(-c3ccc4c(c3)OCO4)c(-c3ccccn3)[nH]2)cc1`?
A: GI50 [1]: > 25 µM; TGI [1]: > 25 µM; GI50 [2]: > 25 µM; TGI [2]: > 25 µM; GI50 [3]: > 25 µM; TGI [3]: > 25 µM; GI50 [4]: > 25 µM; TGI [4]: > 25 µM; GI50 [5]: > 25 µM; TGI [5]: > 25 µM; GI50 [6]: > 25 µM; TGI [6]: > 25 µM; GI50 [7]: > 25 µM; TGI [7]: > 25 µM; GI50 [8]: 15.9 µM; TGI [8]: > 25 µM; GI50 [9]: > 25 µM; TGI [9]: > 25 µM; GI50 [10]: > 7.04 µM; TGI [10]: > 25 µM; GI50 [11]: 19 µM; TGI [11]: > 25 µM; GI50 [12]: 15.1 µM; TGI [12]: > 25 µM; GI50 [13]: > 25 µM; TGI [13]: > 25 µM; GI50 [14]: > 25 µM; TGI [14]: > 25 µM; GI50 [15]: > 23.6 µM; TGI [15]: > 25 µM; GI50 [16]: > 25 µM; TGI [16]: > 25 µM; GI50 [17]: > 12.9 µM; TGI [17]: > 25 µM; GI50 [18]: > 25 µM; TGI [18]: > 25 µM; GI50 [19]: > 25 µM; TGI [19]: > 25 µM; GI50 [20]: > 25 µM; TGI [20]: > 25 µM; GI50 [21]: > 25 µM; TGI [21]: > 25 µM; GI50 [22]: > 25 µM; TGI [22]: > 25 µM; GI50 [23]: > 25 µM; TGI [23]: > 25 µM; GI50 [24]: 11.4 µM; TGI [24]: > 25 µM; GI50 [25]: > 25 µM; TGI [25]: > 25 µM; GI50 [26]: > 25 µM; TGI [26]: > 25 µM; GI50 [27]: > 25 µM; TGI [27]: > 25 µM; GI50 [28]: > 25 µM; TGI [28]: > 25 µM; GI50 [29]: > 25 µM; TGI [29]: > 25 µM; GI50 [30]: > 25 µM; TGI [30]: > 25 µM; GI50 [31]: > 25 µM; TGI [31]: > 25 µM; GI50 [32]: > 25 µM; TGI [32]: > 25 µM; GI50 [33]: > 25 µM; TGI [33]: > 25 µM; GI50 [34]: > 25 µM; TGI [34]: > 25 µM; GI50 [35]: > 25 µM; TGI [35]: > 25 µM; GI50 [36]: > 25 µM; TGI [36]: > 25 µM; GI50 [37]: 10.2 µM; TGI [37]: > 25 µM; GI50 [38]: > 20.9 µM; TGI [38]: > 25 µM; GI50 [39]: > 25 µM; TGI [39]: > 25 µM; GI50 [40]: > 16.5 µM; TGI [40]: > 25 µM; GI50 [41]: > 25 µM; TGI [41]: > 25 µM; GI50 [42]: > 25 µM; TGI [42]: > 25 µM; GI50 [43]: > 25 µM; TGI [43]: > 25 µM; GI50 [44]: > 25 µM; TGI [44]: > 25 µM; GI50 [45]: > 20 µM; TGI [45]: > 25 µM; GI50 [46]: > 25 µM; TGI [46]: > 25 µM; GI50 [47]: > 25 µM; TGI [47]: > 25 µM; GI50 [48]: > 25 µM; TGI [48]: > 25 µM; GI50 [49]: > 22.8 µM; TGI [49]: > 25 µM; GI50 [50]: > 25 µM; TGI [50]: > 25 µM; GI50 [51]: > 25 µM; TGI [51]: > 25 µM; GI50 [52]: > 25 µM; TGI [52]: > 25 µM; GI50 [53]: > 25 µM; TGI [53]: > 25 µM; GI50 [54]: 10.4 µM; TGI [54]: > 25 µM; GI50 [55]: > 25 µM; TGI [55]: > 25 µM; GI50 [56]: > 23.2 µM; TGI [56]: > 25 µM; GI50 [57]: > 25 µM; TGI [57]: > 25 µM; GI50 [58]: > 25 µM; TGI [58]: > 25 µM
